Assay results as given in publication PMC11435058, “Synthesis of New Thiazole-Privileged Chalcones as Tubulin Polymerization Inhibitors with Potential Anticancer Activities” (Pharmaceuticals, 2024).
Like-named read-outs stand apart in the source and are kept apart here.

Columns and labels:
MDA-MB-468 = assay: NCI-60 anticancer screen (SRB; single dose and five doses); assay type: cell-based, human
How it was run: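 NCI panel of about 60 human tumor cell lines treated with compound at a single concentration (10μM) for 48 h. Growth measured by SRB protein staining and expressed as percent growth of treated versus untreated control cells.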

[1] = tested on: 60 human tumor cell lines panel; assay: NCI-60 anticancer screen, whole panel (means and ranges over the cell lines); assay type: cell-based; conditions: for activity at 10 µM: Homo sapiens, 48 h, dose of 10 μM
OVCAR-3 = assay: cells; conditions: Homo sapiens
K-562 = assay: NCI-60 anticancer screen (SRB; single dose and five doses); conditions: Homo sapiens
EKVX = assay: as above; conditions: Homo sapiens
HOP-92 = assay: as above; conditions: Homo sapiens
NCI-H226 = assay: as above; conditions: Homo sapiens
NCI-H322M = assay: as above; conditions: Homo sapiens
NCI-H522 = assay: as above; conditions: Homo sapiens
COLO 205 = assay: as above; conditions: Homo sapiens
HCT-116 = assay: as above; conditions: Homo sapiens
HCT-15 = assay: as above; conditions: Homo sapiens
HT29 = assay: as above; conditions: Homo sapiens
SF-268 = assay: as above; conditions: Homo sapiens
SNB-75 = assay: as above; conditions: Homo sapiens, SNB-75, 48 h, read-out: Growth Percentage
U251 = assay: as above; conditions: Homo sapiens
SK-MEL-2 = assay: as above; conditions: Homo sapiens
UACC-62 = assay: as above; conditions: Homo sapiens
IGROV1 = assay: as above; conditions: Homo sapiens
OVCAR-8 = assay: as above; conditions: Homo sapiens
ACHN = assay: as above; conditions: Homo sapiens
CAKI-1 = assay: as above; conditions: Homo sapiens
UO-31 = assay: as above; conditions: Homo sapiens
MCF7 = assay: as above; conditions: Homo sapiens
HS 578T = assay: as above; conditions: Homo sapiens
[2] = five doses, mean graph midpoint over all cell lines
[3] = 48 h, read-out: Growth Percentage

Work on Cc1[nH]c(=S)sc1C(=O)/C=C/c1ccc(Br)cc1 [2g, (E)-3-(4-Bromophenyl)-1-(4-Methyl-2-Thioxo-2,3-Dihydrothiazol-5-yl)Prop-2-En-1-One] yielded an activity at 10 µM (MDA-MB-468; Homo sapiens, 48 h, MDA-MB-468, dose of 10 μM, read-out: Growth Percentage) of -4.75%, a GI50 (MDA-MB-468; Homo sapiens, MDA-MB-468, Breast Cancer, five dose) of 1790 nM and a CC50 (MDA-MB-468; Homo sapiens, MDA-MB-468, Breast Cancer, five dose, read-out: LC50 (the source's name)) of 27.2 µM. The TGI (MDA-MB-468; MDA-MB-468, Breast Cancer, five dose) was 6.77 µM, the activity at 10 µM ([1]; mean over the tested cell lines, read-out: Mean growth percentage) was 34.2% and the activity at 10 µM ([1]; range over the cell lines, read-out: growth percentages against most of the tested cells (lowest to highest)) was -34.1 to 109%. For the same molecule, the “Log10GI50 _MID” value [1, 2] was -5.31 Molar, the “Log10LC50 _MID” value [1, 2] was -4.3 Molar and the “Log10TGI _MID” value [1, 2] was -4.75 Molar. For the same molecule, the GI50 (OVCAR-3; OVCAR-3) was 1880 nM, the activity at 10 µM (OVCAR-3; OVCAR-3, 48 h, read-out: Growth Percentage) was -12.3% and the CC50 (OVCAR-3; OVCAR-3, read-out: LC50) was 9.7 µM. For the same molecule, the IC (TGI) (OVCAR-3; OVCAR-3, read-out: TGI) was 4.27 µM, the GI50 (K-562; K562) was 2730 nM and the activity at 10 µM (K-562; K562, 48 h, read-out: Growth Percentage) was 13.6%. It also gave a CC50 (K-562; K562, read-out: LC50) greater than 100 µM, an IC (TGI) (K-562; K562, read-out: TGI) greater than 100 µM and a GI50 (EKVX) of 10.6 µM. The activity at 10 µM (EKVX; [3]) was 62.9%, the CC50 (EKVX; read-out: LC50) was 51 µM and the IC (TGI) (EKVX; read-out: TGI) was 23.3 µM. The GI50 (HOP-92; HOP-92) was 6.44 µM, the activity at 10 µM (HOP-92; HOP-92, 48 h, read-out: Growth Percentage) was 67.1% and the CC50 (HOP-92; HOP-92, read-out: LC50) was 58.8 µM. For the same molecule, the IC (TGI) (HOP-92; HOP-92, read-out: TGI) was 22.5 µM, the GI50 (NCI-H226; NCI-H226) was 4.13 µM and the activity at 10 µM (NCI-H226; NCI-H226, 48 h, read-out: Growth Percentage) was 54.5%. For the same molecule, the CC50 (NCI-H226; NCI-H226, read-out: LC50) was greater than 100 µM, the IC (TGI) (NCI-H226; NCI-H226, read-out: TGI) was 25.4 µM and the GI50 (NCI-H322M) was 3.76 µM. It also gave an activity at 10 µM (NCI-H322M; [3]) of 44.1%, a CC50 (NCI-H322M; read-out: LC50) of 41.3 µM and an IC (TGI) (NCI-H322M; read-out: TGI) of 15.2 µM. For the same molecule, the GI50 (NCI-H522; NCI-H522) was 3.37 µM, the activity at 10 µM (NCI-H522; NCI-H522, 48 h, read-out: Growth Percentage) was 21.1% and the CC50 (NCI-H522; NCI-H522, read-out: LC50) was 41.2 µM. It also gave an IC (TGI) (NCI-H522; NCI-H522, read-out: TGI) of 14.3 µM, a GI50 (COLO 205; COLO 205) of 13.9 µM and an activity at 10 µM (COLO 205; COLO 205, 48 h, read-out: Growth Percentage) of 90%. The CC50 (COLO 205; COLO 205, read-out: LC50) was 80 µM, the IC (TGI) (COLO 205; COLO 205, read-out: TGI) was 33.3 µM and the GI50 (HCT-116; HCT-116) was 3.82 µM. It also gave an activity at 10 µM (HCT-116; HCT-116, 48 h, read-out: Growth Percentage) of 16.6%, a CC50 (HCT-116; HCT-116, read-out: LC50) of 40.9 µM and an IC (TGI) (HCT-116; HCT-116, read-out: TGI) of 13.1 µM. It also gave a GI50 (HCT-15; HCT-15) of 2660 nM, an activity at 10 µM (HCT-15; HCT-15, 48 h, read-out: Growth Percentage) of 5.48% and a CC50 (HCT-15; HCT-15, read-out: LC50) of 36.4 µM. It also gave an IC (TGI) (HCT-15; HCT-15, read-out: TGI) of 10 µM, a GI50 (HT29; HT-29) of 5.09 µM and an activity at 10 µM (HT29; HT-29, 48 h, read-out: Growth Percentage) of 76.3%. It also gave a CC50 (HT29; HT-29, read-out: LC50) of 57.8 µM, an IC (TGI) (HT29; HT-29, read-out: TGI) of 19.3 µM and a GI50 (SF-268; SF-268) of 13.5 µM. It also gave an activity at 10 µM (SF-268; SF-268, 48 h, read-out: Growth Percentage) of 46.1%, a CC50 (SF-268; SF-268, read-out: LC50) of 64.2 µM and an IC (TGI) (SF-268; SF-268, read-out: TGI) of 29.5 µM. For the same molecule, the activity at 10 µM (SNB-75) was 2.52%, the GI50 (U251; U-251) was 2870 nM and the activity at 10 µM (U251; U-251, 48 h, read-out: Growth Percentage) was 15.5%. The CC50 (U251; U-251, read-out: LC50) was 39.7 µM, the IC (TGI) (U251; U-251, read-out: TGI) was 11.7 µM and the GI50 (SK-MEL-2; SK-MEL-2) was 5.87 µM. It also gave an activity at 10 µM (SK-MEL-2; SK-MEL-2, 48 h, read-out: Growth Percentage) of 62.3%, a CC50 (SK-MEL-2; SK-MEL-2, read-out: LC50) of 47.9 µM and an IC (TGI) (SK-MEL-2; SK-MEL-2, read-out: TGI) of 19.5 µM. For the same molecule, the GI50 (UACC-62; UACC-62) was 5.17 µM, the activity at 10 µM (UACC-62; UACC-62, 48 h, read-out: Growth Percentage) was 46.8% and the IC (TGI) (UACC-62; UACC-62, read-out: TGI) was 18.6 µM. For the same molecule, the GI50 (IGROV1; IGROV-1) was 3.29 µM, the activity at 10 µM (IGROV1; IGROV-1, 48 h, read-out: Growth Percentage) was 37.1% and the CC50 (IGROV1; IGROV-1, read-out: LC50) was 53.4 µM. For the same molecule, the IC (TGI) (IGROV1; IGROV-1, read-out: TGI) was 11.9 µM, the GI50 (OVCAR-8; OVCAR-8) was 2860 nM and the activity at 10 µM (OVCAR-8; OVCAR-8, 48 h, read-out: Growth Percentage) was -34.1%. For the same molecule, the CC50 (OVCAR-8; OVCAR-8, read-out: LC50) was 37.1 µM, the IC (TGI) (OVCAR-8; OVCAR-8, read-out: TGI) was 8.77 µM and the GI50 (ACHN) was 7.67 µM. It also gave an activity at 10 µM (ACHN; [3]) of 55%, a CC50 (ACHN; read-out: LC50) of 45.4 µM and an IC (TGI) (ACHN; read-out: TGI) of 20.3 µM. The GI50 (CAKI-1; CAKI-1) was 10 µM, the activity at 10 µM (CAKI-1; CAKI-1, 48 h, read-out: Growth Percentage) was 32.8% and the CC50 (CAKI-1; CAKI-1, read-out: LC50) was 47.2 µM. It also gave an IC (TGI) (CAKI-1; CAKI-1, read-out: TGI) of 21.8 µM, a GI50 (UO-31; UO-31) of 2460 nM and an activity at 10 µM (UO-31; UO-31, 48 h, read-out: Growth Percentage) of 22.4%. It also gave an IC (TGI) (UO-31; UO-31, read-out: TGI) of 13.5 µM, a GI50 (MCF7; MCF7) of 2570 nM and an activity at 10 µM (MCF7; MCF7, 48 h, read-out: Growth Percentage) of 10.5%. The CC50 (MCF7; MCF7, read-out: LC50) was 38.7 µM, the IC (TGI) (MCF7; MCF7, read-out: TGI) was 10.6 µM and the GI50 (HS 578T) was 10.4 µM. The activity at 10 µM (HS 578T; [3]) was 74.6%, the CC50 (HS 578T; read-out: LC50) was greater than 100 µM and the IC (TGI) (HS 578T; read-out: TGI) was 33 µM.
